Source: PMC7822115 (Viruses, 2020)
Like-named read-outs stand apart in the source and are kept apart here.

Experiments:
SARS-CoV-2 [1] = experiment: microbe, parasite or virus in culture; format: cell-based; conditions: for EC50: Severe acute respiratory syndrome coronavirus 2, Vero, 48 h, read-out: EC50 (95% CI)
[2] = in vivo; cited from earlier work
SARS-CoV-2 [3] = experiment: microbe, parasite or virus in culture; format: cell-based
MERS-CoV = experiment: microbe, parasite or virus in culture; format: cell-based; conditions: Middle East respiratory syndrome-related coronavirus, Vero, 48 h, read-out: EC50 (95% CI)
Vero cells = conditions: African green monkey
in vitro [4] = conditions: African green monkey
in vitro [5] = conditions: human

Compound | SARS-CoV-2 titer after treatment (in words) (SARS-CoV-2 [1]) | EC50 (SARS-CoV-2 [1]) | Peak human serum concentration [2] | EC50 (SARS-CoV-2 [3]; Severe acute respiratory syndrome coronavirus 2, A549-ACE2, 48 h, read-out: EC50 (95% CI)) | EC50 (MERS-CoV) | Concentration at which cellular toxicity was observed (Vero cells) | Cellular viability / toxicity compared to the media control (in words) (A549/ACE2 cells) | CC50 (in vitro [4]) | CC50 (in vitro [5]) | Decrease in mean SARS-CoV-2 titer compared to the control (SARS-CoV-2 [3]) | SARS-CoV-2 titer after treatment (in words) (SARS-CoV-2 [3]) | Concentration at which cellular toxicity was detected (A549/ACE2 cells; human) | SARS-CoV-2 replication after treatment (in words) (SARS-CoV-2 [1]) | SARS-CoV-2 replication after treatment (in words) (SARS-CoV-2 [3])
O=C(O)c1cn(C2CC2)c2cc(N3CCNCC3)c(F)cc2c1=O [Ciprofloxacin, ciprofloxacin] | below the level of detection | 247 µM | 7.2 µM |  |  |  |  |  |  |  |  |  |  | 
CCn1cc(C(=O)O)c(=O)c2cc(F)c(N3CCNCC3)nc21 [Enoxacin, enoxacin] |  | 126 µM | 11.2 µM | 227 µM | 343 µM | ≥ 37.5 µM | not different from the media control | > 600 µM | > 600 µM |  |  |  |  | 
C[C@H]1COc2c(N3CCN(C)CC3)c(F)cc3c(=O)c(C(=O)O)cn1c23 [Levofloxacin, levofloxacin] |  | 419 µM |  |  |  |  |  | > 600 µM | > 600 µM | 1.4 log |  |  |  | 
COc1c(N2C[C@@H]3CCCN[C@@H]3C2)c(F)cc2c(=O)c(C(=O)O)cn(C3CC3)c12 [Moxifloxacin, moxifloxacin] | below the level of detection | 240 µM | 8.6 µM |  |  | ≥ 300 µM |  | > 600 µM | > 600 µM | 2.2 log | below the level of detection | ≥ 300 µM |  | 
O=C(Nc1ccc([N+](=O)[O-])cc1Cl)c1cc(Cl)ccc1O [niclosamide] |  |  |  |  |  |  |  |  |  |  |  |  | below the level of detection | below the level of detection
